Results reported in ChEMBL document CHEMBL1137195, “SAR and pharmacokinetic studies on phenethylamide inhibitors of the hepatitis C virus NS3/NS4A serine protease” (Bioorg Med Chem Lett, 2004).
Values belong to the compound of their own block, whether it stands above or below them.

Experiments:
[1] = target: Hepatitis C virus serine protease, NS3/NS4A (Hepatitis C virus, UniProt A3EZI9+D2K2A8); experiment: (§1) Inhibitory activity against Hepatitis C virus Non structural protein 3 serine protease/Non structural protein 4A serine protease; type: protein-complex assay, Hepacivirus hominis
[2] = Volume distribution in rats; type: ADME, organism-based; conditions: rat, in vivo; read-out: Vdss
[3] = Area under curve in rats; type: ADME; conditions: rat, in vivo
[4] = Half life in rats; type: ADME; conditions: rat, in vivo
[5] = plasma clearance in rats; type: ADME, organism-based; conditions: rat
[6] = target: T1, Hepatitis C virus serine protease, NS3/NS4A (Hepatitis C virus, UniProt D2K2A8+A3EZI9); experiment: as §1; type: protein-complex assay, Hepacivirus hominis
[7] = target: T1, Hepatitis C virus serine protease, NS3/NS4A; experiment: Inhibitory activity against Hepatitis C virus Non structural protein 3 serine protease/Non structural protein 4A serine protease: Not active at 50 uM; type: protein-complex assay, Hepacivirus hominis
[8] = plasma clearance in rats at 2 mg/kg; type: ADME, organism-based; design: dose 2 mg/kg; conditions: rat
[9] = Half life in rats at 2 mg/kg; type: ADME, organism-based; design: dose 2 mg/kg; conditions: rat, in vivo
[10] = Area under curve in rats at 2 mg/kg; type: ADME, organism-based; design: dose 2 mg/kg; conditions: rat, in vivo
[11] = Volume distribution in rats at 2 mg/kg; type: ADME, organism-based; design: dose 2 mg/kg; conditions: rat, in vivo, read-out: Vdss

T1 sequence (D2K2A8 whole entry): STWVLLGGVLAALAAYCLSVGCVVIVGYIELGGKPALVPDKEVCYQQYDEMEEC
T1 sequence (A3EZI9 whole entry): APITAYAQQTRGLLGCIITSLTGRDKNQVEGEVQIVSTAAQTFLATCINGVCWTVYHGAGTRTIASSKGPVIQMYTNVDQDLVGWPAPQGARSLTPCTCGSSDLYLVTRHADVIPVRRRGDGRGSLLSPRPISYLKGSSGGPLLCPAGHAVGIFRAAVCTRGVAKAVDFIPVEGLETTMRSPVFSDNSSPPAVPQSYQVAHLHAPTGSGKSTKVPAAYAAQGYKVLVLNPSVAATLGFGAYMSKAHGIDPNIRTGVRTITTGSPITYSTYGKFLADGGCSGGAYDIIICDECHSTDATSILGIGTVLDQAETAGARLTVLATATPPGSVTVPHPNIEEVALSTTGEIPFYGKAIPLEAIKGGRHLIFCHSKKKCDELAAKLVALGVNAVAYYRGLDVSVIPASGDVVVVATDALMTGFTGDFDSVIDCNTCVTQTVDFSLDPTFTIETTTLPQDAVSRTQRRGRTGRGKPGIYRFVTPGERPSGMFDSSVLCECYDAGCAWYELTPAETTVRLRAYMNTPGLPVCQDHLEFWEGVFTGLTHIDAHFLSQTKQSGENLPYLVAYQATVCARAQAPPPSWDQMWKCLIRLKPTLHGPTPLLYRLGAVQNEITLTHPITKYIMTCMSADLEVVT
Hepatitis C virus serine protease, NS3/NS4A (Hepatitis C virus, UniProt A3EZI9+D2K2A8), sequence (D2K2A8 whole entry): as the sequence (D2K2A8 whole entry) above
Hepatitis C virus serine protease, NS3/NS4A (Hepatitis C virus, UniProt A3EZI9+D2K2A8), sequence (A3EZI9 whole entry): as the sequence (A3EZI9 whole entry) above

Compound: CC(C)COC(=O)N[C@H](C(=O)N1C[C@H](c2ccccc2)C[C@H]1C(=O)N[C@@H](CC(F)F)C(=O)NCCc1cccc(/C=C/C(=O)O)c1F)C(C)C
Ki [1]: 400 nM

Compound: CC(C)COC(=O)N[C@H](C(=O)N[C@@H](CC(C)C)C(=O)N[C@@H](CC(F)F)C(=O)NCCc1ccc(C(=O)O)cc1Cl)C(C)C
Ki [1]: 1200 nM

Compound: CC(C)COC(=O)N[C@H](C(=O)N1C[C@H](c2ccccc2)C[C@H]1C(=O)N[C@@H](CC(F)F)C(=O)NCCc1cccc(OC(C(=O)O)c2ccccc2)c1)C(C)C (some centres undefined)
Ki [1]: 1000 nM

Compound: CC(C)COC(=O)N[C@H](C(=O)N1C[C@H](c2ccccc2)C[C@H]1C(=O)N[C@@H](CC(F)F)C(=O)NCCc1cccc(/C=C/C(=O)O)c1)C(C)C
Ki [1]: 1300 nM

Compound: CC(C)COC(=O)N[C@H](C(=O)N1C[C@H](C2CCCCC2)C[C@H]1C(=O)N[C@@H](CC(F)F)C(=O)NCCc1c(F)cc(-c2nnn[nH]2)cc1F)C(C)C
Vd [2]: 0.15 L/kg
AUC [3]: 12.4 µM·h
half-life [4]: 74 min
clearance [5]: 9 mL/min/kg
Ki [1]: 100 nM

Compound: CCC(Nc1cccc(CCNC(=O)[C@H](CC(F)F)NC(=O)[C@@H]2C[C@@H](C3CCCCC3)CN2C(=O)[C@@H](NC(=O)OCC(C)C)C(C)C)c1)C(=O)O (some centres undefined)
Ki [1]: 500 nM

Compound: CC(C)COC(=O)N[C@H](C(=O)N1C[C@H](C2CCCCC2)C[C@H]1C(=O)N[C@@H](CC(F)F)C(=O)NCCc1cccc(NC(C(=O)O)c2ccccc2)c1)C(C)C (some centres undefined)
Ki [1]: 650 nM

Compound: CC(C)COC(=O)N[C@H](C(=O)N1C[C@H](c2ccccc2)C[C@H]1C(=O)N[C@@H](CC(F)F)C(=O)NCCc1cc(/C=C/C(=O)O)ccc1F)C(C)C
Ki [1]: 350 nM

Second part, the compound after the results:

Ki [1]: 190 nM
Compound: CC(C)COC(=O)N[C@H](C(=O)N1C[C@H](C2CCCCC2)C[C@H]1C(=O)N[C@@H](CC(F)F)C(=O)NCCc1c(F)ccc(OCC(=O)O)c1F)C(C)C

Ki [1]: 30 nM
Compound: COc1ccc2c(O[C@@H]3C[C@@H](C(=O)N[C@@H](CC(F)F)C(=O)NCCc4c(F)cc(C(=O)O)cc4F)N(C(=O)C(NC(=O)OCC(C)C)C(C)(C)C)C3)cc(-c3ccccc3)nc2c1 (some centres undefined)

Vd [2]: 4.5 L/kg
AUC [3]: 0.4 µM·h
half-life [4]: 48 min
clearance [5]: 222 mL/min/kg
Ki [6]: 550 nM
Compound: CC(C)COC(=O)N[C@H](C(=O)N1CC(OCc2ccccc2)C[C@@H]1C(=O)N[C@@H](CC(F)F)C(=O)NCCc1c(F)cc(C(=O)O)cc1F)C(C)C (stereo in doubt; trans)

Ki [1]: 120 nM
Compound: CC(C)COC(=O)N[C@H](C(=O)N1C[C@H](C2CCCCC2)C[C@H]1C(=O)N[C@@H](CC(F)F)C(=O)NCCc1c(F)ccc(OC(C)C(=O)O)c1F)C(C)C (some centres undefined)

Ki [7]: Not Active
Compound: COC(=O)c1cc(F)c(CCNC(=O)[C@H](CC(F)F)NC(=O)[C@@H]2C[C@@H](C3CCCCC3)CN2C(=O)[C@@H](NC(=O)OCC(C)C)C(C)C)c(F)c1

Vd [2]: 0.45 L/kg
AUC [3]: 2.7 µM·h
half-life [4]: 15 min
clearance [5]: 44 mL/min/kg
Ki [6]: 350 nM
Compound: CC(C)COC(=O)N[C@H](C(=O)N1CC(C2CCCCC2)C[C@@H]1C(=O)N[C@@H](CC(F)F)C(=O)NCCc1c(F)cc(C(=O)O)cc1F)C(C)C (some centres undefined)

Ki [1]: 400 nM
Compound: CC(C)COC(=O)N[C@H](C(=O)N[C@@H](CC(C)C)C(=O)N[C@@H](CC(F)F)C(=O)NCCc1c(F)cc(C(=O)O)cc1F)C(C)C

clearance [8]: 46 mL/min/kg
half-life [9]: 19 min
Ki [1]: 450 nM
AUC [10]: 0.9 µM·h
Vd [11]: 0.8 L/kg
Compound: CC(C)COC(=O)N[C@H](C(=O)N1C[C@H](C2CCCCC2)C[C@H]1C(=O)N[C@@H](CC(F)F)C(=O)NCCc1c(F)cc(C(=O)NS(C)(=O)=O)cc1F)C(C)C

Vd [2]: 2.4 L/kg
AUC [3]: 1.3 µM·h
half-life [4]: 72 min
clearance [5]: 36 mL/min/kg
Ki [6]: 450 nM
Compound: CC(C)COC(=O)N[C@H](C(=O)N1CC(c2ccccc2)C[C@@H]1C(=O)N[C@@H](CC(F)F)C(=O)NCCc1c(F)cc(C(=O)O)cc1F)C(C)C (some centres undefined)

Ki [6]: 4500 nM
Compound: CC(C)COC(=O)N[C@H](C(=O)N1CC(OCc2ccccc2)C[C@@H]1C(=O)N[C@@H](CC(F)F)C(=O)NCCc1c(F)cc(C(=O)O)cc1F)C(C)C (stereo in doubt; cis)

Ki [1]: 20 nM
Compound: COc1ccc2c(O[C@@H]3C[C@@H](C(=O)N[C@@H](CC(F)F)C(=O)NCCc4c(F)cc(C(=O)O)cc4F)N(C(=O)[C@@H](NC(=O)OCC(C)C)C(C)C)C3)cc(-c3csc(NC(C)C)n3)nc2c1
